The experiment deals with 349418-098-R-PDC complex spheroid viability. Put plainly: Anticancer human tumor 349418-098-R-PDC patient-derived lung adenocarcinoma cell line growth inhibition. The settings on record: for viability, T/C: stronger effect = lower value. In a few lines: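 Multicellular complex spheroids of tumor cells with human endothelial cells (HUVEC) and mesenchymal stem cells; the LSD1 inhibitor iadademstat was combined with standard-of-care or investigational agents. Top concentration at or near clinical Cmax, half-log dilutions; final DMSO ≤0.25%.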

The mark [1] stands for this setting: curve of first compound, second compound 0.1 µM.
Setting [2] is: curve of first compound, second compound 0.316 µM.
Setting [3] is: curve of first compound, second compound 1 µM.
The mark [4] stands for this setting: curve of first compound, second compound 3.16 µM.
[5] abbreviates: curve of first compound, second compound 10 µM.
Where [6] appears, read: second compound 0.1 µM, first compound 0.00949 µM.
The mark [7] stands for this setting: second compound 0.1 µM, first compound 0.03 µM.
Where [8] appears, read: second compound 0.1 µM, first compound 0.0949 µM.
[9] abbreviates: second compound 0.1 µM, first compound 0.3 µM.
[10] abbreviates: second compound 0.1 µM, first compound 0.949 µM.
The mark [11] stands for this setting: second compound 0.1 µM, first compound 3 µM.
Where [12] appears, read: second compound 0.316 µM, first compound 0.00949 µM.
Where [13] appears, read: second compound 0.316 µM, first compound 0.03 µM.
Where [14] appears, read: second compound 0.316 µM, first compound 0.0949 µM.
Where [15] appears, read: second compound 0.316 µM, first compound 0.3 µM.
[16] abbreviates: second compound 0.316 µM, first compound 0.949 µM.
Where [17] appears, read: second compound 0.316 µM, first compound 3 µM.
The mark [18] stands for this setting: second compound 1 µM, first compound 0.00949 µM.
Setting [19] is: second compound 1 µM, first compound 0.03 µM.
Setting [20] is: second compound 1 µM, first compound 0.0949 µM.
Setting [21] is: second compound 1 µM, first compound 0.3 µM.
Where [22] appears, read: second compound 1 µM, first compound 0.949 µM.
Where [23] appears, read: second compound 1 µM, first compound 3 µM.
Setting [24] is: second compound 3.16 µM, first compound 0.00949 µM.
Where [25] appears, read: second compound 3.16 µM, first compound 0.03 µM.
Setting [26] is: second compound 3.16 µM, first compound 0.0949 µM.
Where [27] appears, read: second compound 3.16 µM, first compound 0.3 µM.
The mark [28] stands for this setting: second compound 3.16 µM, first compound 0.949 µM.
The mark [29] stands for this setting: second compound 3.16 µM, first compound 3 µM.
Setting [30] is: second compound 10 µM, first compound 0.00949 µM.
[31] abbreviates: second compound 10 µM, first compound 0.03 µM.
Where [32] appears, read: second compound 10 µM, first compound 0.0949 µM.
The mark [33] stands for this setting: second compound 10 µM, first compound 0.3 µM.
[34] abbreviates: second compound 10 µM, first compound 0.949 µM.
[35] abbreviates: second compound 10 µM, first compound 3 µM.

Each structure is given as a SMILES string. Values joined by “and” are separate entries in the source; they are usually repeats but may differ in a detail not shown here. Equal values may be shown once.
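Also: spheroids exposed to agents for seven days before readout.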
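For viability, T/C in this document: 100% = DMSO vehicle control wells.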

The term IC50 denotes the point on the concentration scale where inhibition reaches its midpoint. The viability, T/C is the ratio of treated to control. Take `COc1cc(C2c3cc4c(cc3C(OC3OC5COC(C)OC5C(O)C3O)C3COC(=O)C23)OCO4)cc(OC)c1O` (stereo not drawn) + NC1CCC(NC2CC2c2ccccc2)CC1: the 50% inhibitory concentration (IC50) by setting is: under setting [1], 79.5 nM; under setting [2], 89.9 nM; under setting [3], 86.5 nM; under setting [4], 85.8 nM; under setting [5], 57.1 nM. The viability, T/C under setting [6] was 105%; the viability, T/C under setting [7] was 83.1%; the viability, T/C under setting [8] is 44.7%; the viability, T/C under setting [9] was 14.6%; the viability, T/C under setting [10] was 6.37%; the viability, T/C under setting [11] was 4.96%. Also, the viability, T/C reads like this: under setting [12], 91.9%; under setting [13], 100%; under setting [14], 47.7%; under setting [15], 15.1%; under setting [16], 6.33%; under setting [17], 5.43%. The viability, T/C is 108% under setting [18]; 91.5% under setting [19]; 45.6% under setting [20]; 16% under setting [21]; 6.74% under setting [22]; 5.14% under setting [23]. The viability, T/C reads like this: under setting [24], 106%; under setting [25], 86.4%; under setting [26], 47.6%; under setting [27], 14.2%; under setting [28], 6.91%; under setting [29], 5.13%. Besides, the viability, T/C reads like this: under setting [30], 89.6%; under setting [31], 67%; under setting [32], 37.2%; under setting [33], 13.8%; under setting [34], 6.9%; under setting [35], 5.24%.

Regarding `COc1cc(C2c3cc4c(cc3C(OC3OC5COC(C)OC5C(O)C3O)C3COC(=O)C23)OCO4)cc(OC)c1O` (stereo not drawn), the viability, T/C runs as follows: (compound 0.00949 µM) 93.8% and 95.9%; (compound 0.03 µM) 85.4% and 73.6%; (compound 0.0949 µM) 48.8% and 24.1%; (compound 0.3 µM) 13.5% and 6.74%; (compound 0.949 µM) 7.1% and 4.19%; (compound 3 µM) 4.85% and 3.34%. Further, the IC50 (curve of compound) is 91 nM and 52 nM.

`O=C(C=Cc1cccc(S(=O)(=O)Nc2ccccc2)c1)NO` + NC1CCC(NC2CC2c2ccccc2)CC1: the IC50 is, setting by setting: under setting [1], 88.1 nM; under setting [2], 94.5 nM; under setting [3], 121 nM; under setting [4], 112 nM; under setting [5], 83.7 nM. The viability, T/C runs as follows: under setting [6], 100%; under setting [7], 80.5%; under setting [8], 48.6%; under setting [9], 18.1%; under setting [10], 4.19%; under setting [11], 1.29%. Moreover, the viability, T/C by setting is: under setting [12], 105%; under setting [13], 80.4%; under setting [14], 53.1%; under setting [15], 18.7%; under setting [16], 3.88%; under setting [17], 1.5%. For the same molecule, the viability, T/C reads like this: under setting [18], 97.1%; under setting [19], 85.2%; under setting [20], 58.5%; under setting [21], 20.8%; under setting [22], 3.93%; under setting [23], 1.07%. Further, the viability, T/C is 102% under setting [24]; 88.3% under setting [25]; 56.5% under setting [26]; 17% under setting [27]; 3.94% under setting [28]; 0.93% under setting [29]. The viability, T/C was 96.4% under setting [30]; 87.3% under setting [31]; 44.3% under setting [32]; 13.2% under setting [33]; 3.61% under setting [34]; 0.5% under setting [35].

As to `O=C(c1cc(Cc2n[nH]c(=O)c3ccccc23)ccc1F)N1CCN(C(=O)C2CC2)CC1`, the viability, T/C (compound 0.0316 µM) was 94.6% and 101%; the viability, T/C (compound 0.1 µM) is 97.8% and 94.5%; the viability, T/C (compound 0.316 µM) is 78.8% and 90.7%; the viability, T/C (compound 1 µM) was 65.8% and 85.2%; the viability, T/C (compound 3.16 µM) is 53.2% and 64%; the viability, T/C (compound 10 µM) is 38.9% and 42.3%. Further, for the setting “curve of compound”, the half-inhibitory concentration (IC50) was 3510 nM and 6750 nM.

With `CC[C@@]1(O)C(=O)OCc2c1cc1n(c2=O)Cc2cc3c(CN(C)C)c(O)ccc3nc2-1`, the viability, T/C is 105% and 95.3% (compound 0.000316 µM); 84.7% and 94.4% (compound 0.001 µM); 32.5% and 43.5% (compound 0.00316 µM); 10.2% and 9.41% (compound 0.01 µM); 6.03% and 5.47% (compound 0.0316 µM); 3.25% and 3.14% (compound 0.1 µM). Further, the 50% inhibitory concentration (IC50) (curve of compound) is 2.16 nM and 2.74 nM.

With `CC(C)CC(NC(=O)C(Cc1ccccc1)NC(=O)c1cnccn1)B(O)O` (stereo not drawn), the viability, T/C is 9.44% and 1.92% (compound 0.000316 µM); 1.9% and 1.46% (compound 0.001 µM); 1.14% and 0.84% (compound 0.00316 µM); 0.78% and 0.64% (compound 0.01 µM); 0.63% and 0.42% (compound 0.0316 µM); 0.67% and 0.41% (compound 0.1 µM). For the same molecule, the concentration for half-maximal inhibition (IC50) (curve of compound) is below 0.316 nM.
